The target of one test is T1, human HDAC4 (Homo sapiens, UniProt P56524).
T1 construct: made in house; host or cells: 293T cells (transient transfection, anti-FLAG immunoprecipitation, FLAG peptide elution)
Description: HDAC-inhibiting activity, coumarin-labeled acetylated histone peptide assay. In kind it is biochemical. The method, then: In carrying out HDAC-inhibiting activity measurements, HDAC solutions were prepared in the following manner. […] The human HDAC1 expression vector used was pcDNA3-HD1 (Yang, W. M., Yao, Y. L., Sun, […]. & Seto, E. (1997) J. Biol. Chem. 272, 28001-28007), the human HDAC4 expression vector used was pcDNA3-HD4 ([…]., Nagase, […]. Biol. Chem. 274, 11713-11720), and the murine HDAC6 expression vector used was pcDNA3-mHDA2/HDAC6 ([…]. Biol. Chem. 274, 2440-2445). After 24 hours of incubation, cells were recovered, washed with PBS, suspended in lysis buffer (50 mM Tris-HCl (pH 7.5), 120 mM NaCl, 5 mM EDTA, 0.5% Nonidet P-40), and sonicated. The supernatant was collected by centrifugation and then deprived of nonspecific proteins using Protein A/G plus agarose beads (Santa Cruz Biotechnologies, Inc.). Thereafter, anti-FLAG M2 antibody (Sigma-Aldrich Inc.) was added, and the reaction was allowed to proceed at 4° C. for 2 hours. To this were added agarose beads, the reaction was allowed to proceed at 4° C. for 3 hours, and the agarose beads were washed three times with lysis buffer and then once with HD buffer (20 mM Tris-HCl (pH 8.0), 150 mM NaCl, 10% glycerol). […] HDAC-inhibiting activity evaluation in each in vitro system was made as follows. Each test compound was dissolved in DMSO, a stock solution with a concentration of 10 mM was thus prepared and this was used as an inhibitor stock solution. The assay was carried out by incubating the HDAC solution and a coumarin-labeled acetylated histone peptide solution in the presence of the test compound at 37° C. for 30 minutes (reaction volume 20 μl). To the reaction mixture was added 30 μl of trypsin, and the aminomethylcoumarin released by the enzymatic reaction was assayed using a fluorescent plate reader. In a negative control assay, no inhibitor was added to the reaction system and the same procedure was carried out.

The target of another test is T2, murine HDAC6 (Mus musculus, UniProt Q9Z2V5).
T2 construct: made in house; host or cells: 293T cells (transient transfection, anti-FLAG immunoprecipitation, FLAG peptide elution)
T2 sequence (Q9Z2V5 1-1149): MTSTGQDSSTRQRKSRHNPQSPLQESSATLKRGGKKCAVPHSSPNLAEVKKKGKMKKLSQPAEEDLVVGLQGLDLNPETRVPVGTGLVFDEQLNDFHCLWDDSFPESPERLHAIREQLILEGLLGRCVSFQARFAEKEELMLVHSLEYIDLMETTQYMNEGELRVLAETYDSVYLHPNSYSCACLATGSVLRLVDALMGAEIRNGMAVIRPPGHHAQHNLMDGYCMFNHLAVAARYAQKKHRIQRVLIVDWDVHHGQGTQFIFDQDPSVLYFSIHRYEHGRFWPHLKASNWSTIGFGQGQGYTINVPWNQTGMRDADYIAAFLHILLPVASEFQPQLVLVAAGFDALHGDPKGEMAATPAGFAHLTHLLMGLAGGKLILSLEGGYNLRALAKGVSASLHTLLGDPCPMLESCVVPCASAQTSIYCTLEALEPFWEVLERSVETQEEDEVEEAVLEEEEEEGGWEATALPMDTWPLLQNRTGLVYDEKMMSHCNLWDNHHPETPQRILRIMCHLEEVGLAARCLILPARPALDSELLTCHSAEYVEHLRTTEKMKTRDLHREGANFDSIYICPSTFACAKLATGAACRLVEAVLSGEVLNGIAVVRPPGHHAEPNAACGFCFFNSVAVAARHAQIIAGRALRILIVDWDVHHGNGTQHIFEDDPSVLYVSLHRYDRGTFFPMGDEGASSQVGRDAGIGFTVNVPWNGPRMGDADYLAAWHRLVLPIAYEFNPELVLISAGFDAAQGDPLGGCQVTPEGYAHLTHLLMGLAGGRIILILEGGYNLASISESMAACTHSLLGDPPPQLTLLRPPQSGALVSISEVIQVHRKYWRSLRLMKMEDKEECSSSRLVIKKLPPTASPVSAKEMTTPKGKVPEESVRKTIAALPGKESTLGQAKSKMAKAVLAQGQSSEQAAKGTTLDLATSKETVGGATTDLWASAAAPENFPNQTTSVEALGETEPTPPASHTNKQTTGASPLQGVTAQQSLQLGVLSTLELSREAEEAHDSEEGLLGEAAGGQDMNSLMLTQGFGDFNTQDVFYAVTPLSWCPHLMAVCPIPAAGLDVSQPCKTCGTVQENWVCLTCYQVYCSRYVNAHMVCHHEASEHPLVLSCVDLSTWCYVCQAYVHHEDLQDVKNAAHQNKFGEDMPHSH
The test is described as above. In kind it is biochemical. The conditions noted are these: murine HDAC6 from transfected 293T cells; 37° C., 30 minutes. As to the method:
(§1) In carrying out HDAC-inhibiting activity measurements, HDAC solutions were prepared in the following manner. In each 100-mm dish, there were sowed 1×10^7 293T cells and, after 24 hours, they were transfected with a vector (5 μg) expressing human HDAC1 or HDAC4 or murine HDAC6 using the LipofectAmine 2000 reagent (Invitrogen). The human HDAC1 expression vector used was pcDNA3-HD1 (Yang, W. M., Yao, Y. L., Sun, J. M., Davie, J. R. & Seto, E. (1997) J. Biol. Chem. 272, 28001-28007), the human HDAC4 expression vector used was pcDNA3-HD4 (Fischle, W., Emiliani, S., Hendzel, M. J., Nagase, T., Nomura, N., Voelter, W. & Verdin, E. (1999) J. Biol. Chem. 274, 11713-11720), and the murine HDAC6 expression vector used was pcDNA3-mHDA2/HDAC6 (Verdel, A. & Khochbin, S. (1999) J. Biol. Chem. 274, 2440-2445).
(§2) After 24 hours of incubation, cells were recovered, washed with PBS, suspended in lysis buffer (50 mM Tris-HCl (pH 7.5), 120 mM NaCl, 5 mM EDTA, 0.5% Nonidet P-40), and sonicated. The supernatant was collected by centrifugation and then deprived of nonspecific proteins using Protein A/G plus agarose beads (Santa Cruz Biotechnologies, Inc.). Thereafter, anti-FLAG M2 antibody (Sigma-Aldrich Inc.) was added, and the reaction was allowed to proceed at 4° C. for 2 hours.
(§3) To this were added agarose beads, the reaction was allowed to proceed at 4° C. for 3 hours, and the agarose beads were washed three times with lysis buffer and then once with HD buffer (20 mM Tris-HCl (pH 8.0), 150 mM NaCl, 10% glycerol). The protein bound to the agarose beads was recovered by 1 hour of incubation with FLAG peptide (40 μg) (Sigma-Aldrich Inc.) in HD buffer (200 μl) at 4° C., and the liquid recovered was used, as a reactant solution, in the HDAC-inhibiting activity measurement described below.
(§4) HDAC-inhibiting activity evaluation in each in vitro system was made as follows. Each test compound was dissolved in DMSO, a stock solution with a concentration of 10 mM was thus prepared and this was used as an inhibitor stock solution. The assay was carried out by incubating the HDAC solution and a coumarin-labeled acetylated histone peptide solution in the presence of the test compound at 37° C. for 30 minutes (reaction volume 20 μl). To the reaction mixture was added 30 μl of trypsin, and the aminomethylcoumarin released by the enzymatic reaction was assayed using a fluorescent plate reader. In a negative control assay, no inhibitor was added to the reaction system and the same procedure was carried out.

Another test deals with T3, human HDAC1 (Homo sapiens, UniProt Q13547).
T3 construct: made in house; host or cells: 293T cells (transient transfection, anti-FLAG immunoprecipitation, FLAG peptide elution)
The test is described as above. The conditions noted are these: human HDAC1 from transfected 293T cells; 37° C., 30 minutes. It is filed as biochemical. As to the method:
as §1, §2, §3, §4

Test [1] deals with human wild type p21 promoter. Description: p21 promoter assay (luciferase) in MFLL-9 cells. It is filed as cell-based. The conditions noted are these: 20 hours, concentration giving 1000% luminescence relative to negative control (100%). The method, then: As an HDAC-inhibiting activity in an […] system, the following measurement was carried out using the p21 promoter inducing activity as an index. MFLL-9 cells used in the experiment are cells stably retaining a fusion gene (Dr. B. Vogelstaein) from the human wild type p21 promoter and luciferase gene. They were cultured using phenol red-free DMEM supplemented with 10% FBS in a steam-saturated incubator at 37° C. in the presence of 5% carbon dioxide. These MFLL-9 cells were sowed onto a 96-well microplate at a cell density of 2×10^4 cells/well and, after 24 hours of cultivation in 99 μl, per well, of the medium mentioned above, each test compound solution was added, followed by 20 hours of incubation. […] In a negative control, the same procedure was carried out without adding any inhibitor to the reaction system.
Using Luciferase Assay Reagent (Promega), the intensity of the luminescence due to the product of the enzymatic reaction involving luciferase expressed within cells was measured.

Where [2] appears, read: human HDAC4 from transfected 293T cells, 37° C., 30 minutes, read-out: HDAC-inhibiting activity IC50 HDAC4.

Like-named read-outs stand apart in the source and are kept apart here. Non-standard residues stand in square brackets, D forms with d. Residues, ends and D or L forms follow the SMILES beside them. Ala(5-hexenyl) = C=CCCCCC[C@H](N)C(=O)O; Aib = CC(C)(N)C(=O)O Where only a bound is given, the exact number is not on record here.

T3 sequence (Q13547 whole entry): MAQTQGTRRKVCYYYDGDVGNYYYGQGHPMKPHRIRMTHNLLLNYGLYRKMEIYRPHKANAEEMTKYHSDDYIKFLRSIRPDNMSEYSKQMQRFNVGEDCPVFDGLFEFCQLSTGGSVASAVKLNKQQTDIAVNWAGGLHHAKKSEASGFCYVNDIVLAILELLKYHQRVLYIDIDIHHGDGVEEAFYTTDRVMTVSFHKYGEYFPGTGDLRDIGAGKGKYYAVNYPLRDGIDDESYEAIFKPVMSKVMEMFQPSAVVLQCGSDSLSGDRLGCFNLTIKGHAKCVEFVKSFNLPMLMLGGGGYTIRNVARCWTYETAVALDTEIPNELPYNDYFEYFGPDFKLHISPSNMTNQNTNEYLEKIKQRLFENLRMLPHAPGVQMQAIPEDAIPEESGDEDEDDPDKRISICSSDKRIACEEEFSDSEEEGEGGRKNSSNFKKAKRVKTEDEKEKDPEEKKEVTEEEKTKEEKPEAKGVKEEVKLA
T1 sequence (P56524 whole entry): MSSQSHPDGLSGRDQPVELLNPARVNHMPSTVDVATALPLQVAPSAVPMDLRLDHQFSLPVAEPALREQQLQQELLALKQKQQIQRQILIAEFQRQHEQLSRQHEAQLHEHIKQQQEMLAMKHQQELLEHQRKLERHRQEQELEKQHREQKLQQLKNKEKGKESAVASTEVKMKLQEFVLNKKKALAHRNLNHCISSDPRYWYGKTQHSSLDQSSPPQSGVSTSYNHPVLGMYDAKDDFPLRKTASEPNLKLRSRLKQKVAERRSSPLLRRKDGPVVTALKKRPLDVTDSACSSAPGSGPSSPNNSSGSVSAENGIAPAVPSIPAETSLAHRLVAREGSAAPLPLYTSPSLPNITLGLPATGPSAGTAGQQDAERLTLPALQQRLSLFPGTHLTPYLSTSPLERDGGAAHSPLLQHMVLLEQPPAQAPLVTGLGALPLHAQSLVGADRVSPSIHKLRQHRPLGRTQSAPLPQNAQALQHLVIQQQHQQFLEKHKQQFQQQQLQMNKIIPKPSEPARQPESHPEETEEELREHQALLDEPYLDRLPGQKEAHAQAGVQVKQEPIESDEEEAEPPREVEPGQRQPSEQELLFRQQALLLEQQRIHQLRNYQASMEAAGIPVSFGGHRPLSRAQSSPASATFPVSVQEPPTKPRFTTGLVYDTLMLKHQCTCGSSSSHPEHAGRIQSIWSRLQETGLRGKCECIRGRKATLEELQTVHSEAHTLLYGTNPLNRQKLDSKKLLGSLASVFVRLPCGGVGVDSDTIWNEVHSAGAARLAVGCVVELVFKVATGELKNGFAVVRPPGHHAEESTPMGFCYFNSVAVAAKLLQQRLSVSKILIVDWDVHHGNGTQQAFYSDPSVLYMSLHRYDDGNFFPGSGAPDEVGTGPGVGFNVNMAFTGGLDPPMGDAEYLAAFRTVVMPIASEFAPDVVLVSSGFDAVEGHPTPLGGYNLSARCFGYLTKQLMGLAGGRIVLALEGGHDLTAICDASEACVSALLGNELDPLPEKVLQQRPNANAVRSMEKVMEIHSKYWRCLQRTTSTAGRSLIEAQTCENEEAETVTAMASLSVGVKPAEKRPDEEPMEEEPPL
T1 sequence (O15379 whole entry, further chain): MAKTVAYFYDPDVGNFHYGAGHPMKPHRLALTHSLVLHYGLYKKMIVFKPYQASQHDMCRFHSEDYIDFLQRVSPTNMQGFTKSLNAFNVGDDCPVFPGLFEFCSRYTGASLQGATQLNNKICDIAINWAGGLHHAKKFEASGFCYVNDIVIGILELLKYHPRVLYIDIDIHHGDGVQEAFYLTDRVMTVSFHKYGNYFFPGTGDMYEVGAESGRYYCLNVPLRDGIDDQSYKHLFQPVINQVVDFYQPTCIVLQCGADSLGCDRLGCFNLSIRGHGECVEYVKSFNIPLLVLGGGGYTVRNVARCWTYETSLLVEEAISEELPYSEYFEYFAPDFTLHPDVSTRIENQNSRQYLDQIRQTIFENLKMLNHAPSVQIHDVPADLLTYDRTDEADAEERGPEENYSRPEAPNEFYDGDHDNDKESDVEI

Turning to `CC(=O)COCCCCC[C@@H]1NC(=O)[C@H]2CCCN2C(=O)[C@H](Cc2ccccc2)NC(=O)C(C)(C)NC1=O` [Ky-74, cyclo(-L-Ah7(acetonyl)-Aib-L-Phe-D-Pro-)], the IC50 at human HDAC4 (setting [2]), on murine HDAC6 and at human HDAC1 was > 100 µM each time. Also, the “p21 promoter activity EC1000” value in test [1] is >250 µM.

With `CC1(C)NC(=O)[C@H](CCCCCSCc2ccccc2)NC(=O)[C@H]2CCCN2C(=O)[C@H](Cc2ccccc2)NC1=O` [Ky-69, cyclo(-L-Am7(benzyl)-Aib-L-Phe-D-Pro-)], the IC50 (in general, the point on the concentration scale where inhibition reaches its midpoint) on human HDAC4 (setting [2]) was determined as 0.0065 µM; on murine HDAC6, 0.12 µM; against human HDAC1, 0.011 µM. The “p21 promoter activity EC1000” value in test [1] stood at 0.041 µM.

Regarding `C=CCCCCC[C@@H]1NC(=O)[C@H]2CCCN2C(=O)[C@H](Cc2ccccc2)NC(=O)C(C)(C)NC1=O` [Ky-17, cyclo(-L-Ae9-Aib-L-Phe-D-Pro-)] (cyclo([Aib]F[dP][Ala(5-hexenyl)])), the IC50 on human HDAC4, on murine HDAC6 and at human HDAC1 was > 100 µM in each case. Besides, the “p21 promoter activity EC1000” value in test [1] is >250 µM.

In the case of `CC1(C)NC(=O)[C@H](CCCCCSCc2cccnc2)NC(=O)[C@H]2CCCN2C(=O)[C@H](Cc2ccccc2)NC1=O` [Ky-68, cyclo(-L-Am7(3-pyridylmethyl)-Aib-L-Phe-D-Pro-)], the IC50 on human HDAC4 (setting [2]) is 0.33 µM; at murine HDAC6, 3.7 µM; on human HDAC1, 0.4 µM. Moreover, the “p21 promoter activity EC1000” value in test [1] is 0.20 µM.

On to `CCOCC(=O)CCCCC[C@@H]1NC(=O)[C@H]2CCCN2C(=O)[C@H](Cc2ccccc2)NC(=O)C(C)(C)NC1=O` [Ky-10, cyclo(-L-Ae9(Emk)-Aib-L-Phe-D-Pro-)], for which the IC50 at human HDAC4 (setting [2]) was determined as 0.031 µM; against murine HDAC6 it was 8.4 µM; on human HDAC1 it was 0.021 µM. The “p21 promoter activity EC1000” value in test [1] came to 0.095 µM.

For the compound `CC1(C)NC(=O)[C@H](CCCCCSCc2ccccn2)NC(=O)[C@H]2CCCN2C(=O)[C@H](Cc2ccccc2)NC1=O` [Ky-16, cyclo(-L-Am7(2-pyridylmethylthio ether)-Aib-L-Phe-D-Pro-)], the values for the concentration for half-maximal inhibition (IC50) on human HDAC4 (setting [2]), against murine HDAC6 and against human HDAC1 were 0.011 µM, 0.058 µM and 0.023 µM, respectively. Besides, in test [1], the “p21 promoter activity EC1000” value amounted to 0.20 µM.

On to `CC1(C)NC(=O)[C@H](CCCCCC(=O)CBr)NC(=O)[C@H]2CCCN2C(=O)[C@H](Cc2ccccc2)NC1=O` [Ky-12, cyclo(-L-Ae9(Bmk)-Aib-L-Phe-D-Pro-)], for which the IC50 at human HDAC4 (setting [2]) was 0.06 µM; against murine HDAC6 it was 0.62 µM; on human HDAC1, 0.062 µM. Besides, the “p21 promoter activity EC1000” value in test [1] is 0.34 µM.

In the case of `CC1(C)NC(=O)[C@H](CCCCCCSCC(=O)C(F)(F)F)NC(=O)[C@H]2CCCN2C(=O)[C@H](Cc2ccccc2)NC1=O` [Ky-73, cyclo(-L-Am8(1,1,1-trifluoroacetonyl)-Aib-L-Phe-D-Pro-)], the 50% inhibitory concentration (IC50) at human HDAC4 (setting [2]) was determined as 0.46 µM; on murine HDAC6, 26.4 µM; against human HDAC1 it was 1.1 µM. Besides, the “p21 promoter activity EC1000” value in test [1] turned out to be 3.7 µM.
